Reference: ChEMBL document CHEMBL5321272 (J Med Chem, 2023)
pIC50: −log10 of the molar value. The source made the active and inactive calls. No cut-off for these calls is given here.

Tests used:
[1] = target: Receptor-type tyrosine-protein kinase FLT3 (Homo sapiens, UniProt P36888, D835Y)
Description: Inhibition of FLT3 D835Y mutant (unknown origin) using peptide substrate TK-S and ATP as substrate incubated for 1 hr by HTRF assay

[2] = Tmax in ICR mouse at 10 mg/kg, po; format: ADME, organism-based; details: in vivo
hERG (KCNH2) = hERG (KCNH2) (Homo sapiens, UniProt Q12809); test: Inhibition of hERG expressed in HEK293 cells at 20 uM by whole cell patch clamp analysis; format: toxicity, cell-based; details: HEK293 cells expressing hERG
[3] = target: T1, Serine/threonine-protein kinase Chk1 (Homo sapiens, UniProt O14757)
T1 sequence (O14757 whole entry): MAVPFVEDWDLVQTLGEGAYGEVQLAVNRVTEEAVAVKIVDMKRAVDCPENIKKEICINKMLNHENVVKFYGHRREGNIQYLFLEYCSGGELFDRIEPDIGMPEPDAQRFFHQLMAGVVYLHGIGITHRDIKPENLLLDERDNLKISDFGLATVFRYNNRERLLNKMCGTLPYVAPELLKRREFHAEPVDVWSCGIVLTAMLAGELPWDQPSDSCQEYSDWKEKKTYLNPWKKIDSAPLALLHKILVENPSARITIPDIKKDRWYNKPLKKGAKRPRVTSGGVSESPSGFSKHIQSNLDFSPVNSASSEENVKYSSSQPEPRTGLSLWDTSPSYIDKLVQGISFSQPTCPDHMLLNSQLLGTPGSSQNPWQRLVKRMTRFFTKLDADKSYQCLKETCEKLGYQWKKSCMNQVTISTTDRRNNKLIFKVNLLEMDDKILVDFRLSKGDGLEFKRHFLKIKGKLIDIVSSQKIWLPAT
Description: Inhibition of CHK1 (unknown origin) using peptide substrate S1 and ATP as substrate incubated for 1 hr by HTRF assay

[4] = Half life in ICR mouse at 10 mg/kg, po; format: ADME, organism-based; details: in vivo
[5] = target: Mast/stem cell growth factor receptor Kit (Homo sapiens, UniProt P10721); test: Inhibition of c-KIT (unknown origin) using peptide substrate TK-S and ATP as substrate incubated for 1 hr by HTRF assay; format: toxicity
[6] = AUC (infinity) in ICR mouse at 10 mg/kg, po; format: ADME, organism-based; parameters: dose 10 mg/kg, route po; details: in vivo
BaF3 [7] = test: Antiproliferative activity against mouse BaF3 cells harboring FLT3 D835V mutant assessed as reduction in cell viability incubated for 72 hrs by CellTiter 96 Aqueous One Solution Cell Proliferation Assay; format: functional, cell-based
BaF3 [8] = test: Antiproliferative activity against mouse BaF3 cells harboring FLT3 F691L mutant assessed as reduction in cell viability incubated for 72 hrs by CellTiter 96 Aqueous One Solution Cell Proliferation Assay; format: functional, cell-based
[9] = MRT (infinity) in ICR mouse at 10 mg/kg, po; format: ADME, organism-based; details: in vivo
[10] = Selectivity ratio of IC50 for inhibition of c-KIT (unknown origin) to IC50 for inhibition of FLT3 D835Y mutant (unknown origin)
MV4-11 = test: cells; details: Homo sapiens, MV4-11, 72 h
Description: Antiproliferative activity against human MV4-11 cells assessed as reduction in cell viability incubated for 72 hrs by CellTiter 96 Aqueous One Solution Cell Proliferation Assay

[11] = Cmax in ICR mouse at 10 mg/kg, po; format: ADME, organism-based; parameters: dose 10 mg/kg, route po; details: in vivo
BaF3 [12] = test: Antiproliferative activity against mouse BaF3 cells harboring FLT3 D835F mutant assessed as reduction in cell viability incubated for 72 hrs by CellTiter 96 Aqueous One Solution Cell Proliferation Assay; format: functional, cell-based
[13] = AUC (last) in ICR mouse at 10 mg/kg, po; format: ADME, organism-based; parameters: dose 10 mg/kg, route po; details: in vivo

Sequence of hERG (KCNH2) (Q12809 whole entry): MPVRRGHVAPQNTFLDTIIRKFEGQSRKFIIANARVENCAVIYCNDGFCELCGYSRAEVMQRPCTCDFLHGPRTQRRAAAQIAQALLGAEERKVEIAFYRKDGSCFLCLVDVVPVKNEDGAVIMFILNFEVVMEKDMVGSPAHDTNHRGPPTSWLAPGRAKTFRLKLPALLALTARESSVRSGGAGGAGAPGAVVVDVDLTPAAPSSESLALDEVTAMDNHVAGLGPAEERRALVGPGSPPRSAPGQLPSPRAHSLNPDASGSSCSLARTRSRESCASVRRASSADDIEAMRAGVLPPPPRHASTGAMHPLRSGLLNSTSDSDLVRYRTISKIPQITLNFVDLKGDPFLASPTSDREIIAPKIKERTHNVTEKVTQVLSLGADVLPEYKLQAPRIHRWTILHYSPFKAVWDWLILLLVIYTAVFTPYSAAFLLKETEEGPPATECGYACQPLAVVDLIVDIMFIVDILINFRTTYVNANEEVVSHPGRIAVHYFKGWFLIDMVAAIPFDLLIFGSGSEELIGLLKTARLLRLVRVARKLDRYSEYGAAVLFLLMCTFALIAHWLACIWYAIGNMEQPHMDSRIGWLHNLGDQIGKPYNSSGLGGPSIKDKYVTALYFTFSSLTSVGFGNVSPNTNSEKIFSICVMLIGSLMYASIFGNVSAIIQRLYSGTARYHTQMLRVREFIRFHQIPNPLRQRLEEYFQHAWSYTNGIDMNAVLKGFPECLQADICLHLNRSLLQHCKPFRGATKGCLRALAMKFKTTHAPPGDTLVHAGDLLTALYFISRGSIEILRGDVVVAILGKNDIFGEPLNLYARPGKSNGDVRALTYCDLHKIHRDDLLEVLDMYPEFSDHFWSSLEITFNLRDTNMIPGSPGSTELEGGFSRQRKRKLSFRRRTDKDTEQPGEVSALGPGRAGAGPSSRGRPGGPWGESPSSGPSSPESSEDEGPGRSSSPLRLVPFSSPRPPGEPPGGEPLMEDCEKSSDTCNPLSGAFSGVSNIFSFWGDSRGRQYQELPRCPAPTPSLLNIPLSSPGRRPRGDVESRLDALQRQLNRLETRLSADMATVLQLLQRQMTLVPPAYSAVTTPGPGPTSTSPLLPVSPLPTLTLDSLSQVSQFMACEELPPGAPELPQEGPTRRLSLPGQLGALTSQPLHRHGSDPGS
Sequence of Mast/stem cell growth factor receptor Kit (P10721 whole entry): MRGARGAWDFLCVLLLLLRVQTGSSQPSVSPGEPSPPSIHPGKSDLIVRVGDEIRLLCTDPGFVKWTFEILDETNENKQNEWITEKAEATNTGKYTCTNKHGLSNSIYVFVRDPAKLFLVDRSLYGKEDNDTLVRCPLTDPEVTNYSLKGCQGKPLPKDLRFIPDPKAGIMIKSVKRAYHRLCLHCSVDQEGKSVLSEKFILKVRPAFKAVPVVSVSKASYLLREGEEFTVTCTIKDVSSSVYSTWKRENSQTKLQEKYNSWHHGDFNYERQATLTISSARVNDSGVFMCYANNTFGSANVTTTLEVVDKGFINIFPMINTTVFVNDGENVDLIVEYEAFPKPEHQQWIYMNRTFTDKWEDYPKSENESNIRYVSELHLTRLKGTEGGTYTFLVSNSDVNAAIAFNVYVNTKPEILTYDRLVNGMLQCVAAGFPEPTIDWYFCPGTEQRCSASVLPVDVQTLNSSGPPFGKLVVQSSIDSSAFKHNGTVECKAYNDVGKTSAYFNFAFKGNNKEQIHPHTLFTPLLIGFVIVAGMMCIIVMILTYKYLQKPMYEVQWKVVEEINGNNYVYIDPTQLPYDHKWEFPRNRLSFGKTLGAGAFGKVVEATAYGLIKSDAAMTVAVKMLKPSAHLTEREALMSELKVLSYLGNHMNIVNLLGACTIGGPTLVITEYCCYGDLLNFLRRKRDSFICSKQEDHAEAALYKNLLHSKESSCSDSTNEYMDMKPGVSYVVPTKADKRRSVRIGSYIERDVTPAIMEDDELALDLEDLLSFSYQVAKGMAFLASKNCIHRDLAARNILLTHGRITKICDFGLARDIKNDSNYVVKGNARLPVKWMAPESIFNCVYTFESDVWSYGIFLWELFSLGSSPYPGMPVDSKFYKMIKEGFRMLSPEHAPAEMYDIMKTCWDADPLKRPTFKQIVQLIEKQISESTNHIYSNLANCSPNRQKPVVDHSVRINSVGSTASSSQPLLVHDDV

Compound: CC(=O)N1CCc2cc(Nc3ncc(C(F)(F)F)c(N[C@H]4CC[C@@H](N)CC4)n3)ccc2C1
- pIC50 [1]: 9.06
- Tmax [2]: 2 h
- inhibition at 20 µM (hERG (KCNH2)): 33.2%
- pIC50 [3]: 8.12
- half-life [4]: 0.81 h
- pIC50 [5]: 5.97
- AUC(0-inf) [6]: 1100 ng·h/mL
- Activity (BaF3 [7]): Active
- Activity (BaF3 [8]): Active
- MRT inf [9]: 2.22 h
- Ratio IC50 [10]: 1240
- pIC50 (MV4-11): 10.15
- Cmax [11]: 555 ng/mL
- Activity (BaF3 [12]): Active
- AUC(0-t) [13]: 1080 ng·h/mL

Compound: N[C@H]1CC[C@@H](Nc2nc(Nc3ccc4c(c3)CCN(C(=O)CO)C4)ncc2C(F)(F)F)CC1
- pIC50 [1]: 9.34
- Tmax [2]: 1 h
- inhibition at 20 µM (hERG (KCNH2)): 10.4%
- pIC50 [3]: 7.75
- half-life [4]: 2.3 h
- pIC50 [5]: 5.69
- AUC(0-inf) [6]: 411 ng·h/mL
- Activity (BaF3 [7]): Active
- Activity (BaF3 [8]): Active
- MRT inf [9]: 3.43 h
- Ratio IC50 [10]: 4420
- pIC50 (MV4-11): 9.55
- Cmax [11]: 162 ng/mL
- Activity (BaF3 [12]): Active
- AUC(0-t) [13]: 340 ng·h/mL

Compound: C[C@@H](O)C(=O)N1CCc2cc(Nc3ncc(C(F)(F)F)c(N[C@H]4CC[C@@H](N)CC4)n3)ccc2C1
- pIC50 [1]: 8.90
- Tmax [2]: 2 h
- inhibition at 20 µM (hERG (KCNH2)): 14.6%
- pIC50 [3]: 7.97
- half-life [4]: 0.96 h
- pIC50 [5]: 5.75
- AUC(0-inf) [6]: 226 ng·h/mL
- Activity (BaF3 [7]): Active
- Activity (BaF3 [8]): Active
- MRT inf [9]: 2.05 h
- Ratio IC50 [10]: 1440
- pIC50 (MV4-11): 9.68
- Cmax [11]: 80.1 ng/mL
- Activity (BaF3 [12]): Active
- AUC(0-t) [13]: 220 ng·h/mL

Compound: CC(C)(O)CC(=O)N1Cc2ccc(Nc3ncc(C(F)(F)F)c(N[C@H]4CC[C@@H](N)CC4)n3)cc2C1
- pIC50 [1]: 8.95
- Tmax [2]: 1 h
- inhibition at 20 µM (hERG (KCNH2)): 19.3%
- pIC50 [3]: 7.90
- half-life [4]: 0.81 h
- pIC50 [5]: 5.61
- AUC(0-inf) [6]: 104 ng·h/mL
- Activity (BaF3 [7]): Active
- Activity (BaF3 [8]): Active
- MRT inf [9]: 1.67 h
- Ratio IC50 [10]: 2200
- pIC50 (MV4-11): 9.32
- Cmax [11]: 42.5 ng/mL
- Activity (BaF3 [12]): Active
- AUC(0-t) [13]: 99.6 ng·h/mL

Compound: CC(C)(O)C(=O)N1Cc2ccc(Nc3ncc(C(F)(F)F)c(N[C@H]4CC[C@@H](N)CC4)n3)cc2C1
- pIC50 [1]: 8.87
- Tmax [2]: 2 h
- inhibition at 20 µM (hERG (KCNH2)): 17.5%
- pIC50 [3]: 7.87
- half-life [4]: 0.63 h
- pIC50 [5]: 5.51
- AUC(0-inf) [6]: 604 ng·h/mL
- Activity (BaF3 [7]): Active
- Activity (BaF3 [8]): Active
- MRT inf [9]: 1.92 h
- Ratio IC50 [10]: 2290
- pIC50 (MV4-11): 9.30
- Cmax [11]: 263 ng/mL
- Activity (BaF3 [12]): Active
- AUC(0-t) [13]: 577 ng·h/mL

Compound: CC(=O)N1Cc2ccc(Nc3ncc(C(F)(F)F)c(N[C@H]4CC[C@@H](N)CC4)n3)cc2C1
- pIC50 [1]: 8.79
- Tmax [2]: 2 h
- inhibition at 20 µM (hERG (KCNH2)): 28.3%
- pIC50 [3]: 7.88
- half-life [4]: 1.21 h
- pIC50 [5]: 5.65
- AUC(0-inf) [6]: 103 ng·h/mL
- Activity (BaF3 [7]): Active
- Activity (BaF3 [8]): Active
- MRT inf [9]: 2.29 h
- Ratio IC50 [10]: 1370
- pIC50 (MV4-11): 9.47
- Cmax [11]: 32 ng/mL
- Activity (BaF3 [12]): Active
- AUC(0-t) [13]: 97.8 ng·h/mL

Compound: CC(C)(O)C(=O)N1CCc2ccc(Nc3ncc(C(F)(F)F)c(N[C@H]4CC[C@@H](N)CC4)n3)cc2C1
- pIC50 [1]: 8.66
- Tmax [2]: 0.25 h
- inhibition at 20 µM (hERG (KCNH2)): 28.1%
- pIC50 [3]: 7.85
- half-life [4]: 9.08 h
- pIC50 [5]: 5.05
- AUC(0-inf) [6]: 57.5 ng·h/mL
- Activity (BaF3 [7]): Active
- Activity (BaF3 [8]): Active
- MRT inf [9]: 13.9 h
- Ratio IC50 [10]: 4030
- pIC50 (MV4-11): 9.03
- Cmax [11]: 4.06 ng/mL
- Activity (BaF3 [12]): Active
- AUC(0-t) [13]: 18.6 ng·h/mL
